Data as given in publication PMC7530726, “A structure-based computational workflow to predict liability and binding modes of small molecules to hERG” (Scientific Reports, 2020).
Values joined by “and” are separate entries in the source; they are usually repeats but may differ in a detail not shown here. Identical values can stand only once. Like-named read-outs stand apart in the source and are kept apart here.

What was measured:
[1] = tested on: serotonin 5-hydroxytryptamine receptor 4 (5HT-4); conditions: cited from earlier work
hERG Y652A [2] = target: T1, hERG Y652A (Homo sapiens, UniProt Q12809, Y652A); test: in vitro; conditions: pH 7.4, Percent current inhibition hERG Y652A
hERG F656A [3] = target: T2, hERG F656A (Homo sapiens, UniProt Q12809, F656A); test: in vitro
hERG = conditions: cited from earlier work
WT hERG = target: T3, WT hERG (Homo sapiens, UniProt Q12809); test: Predictor hERG Fluorescence Polarization Assay kit; format: binding
T3 construct: purchased Life Technologies
Experimental: All measurements were made according to the manufacturer’s instruction. Fluorescence polarization was measured using PerkinElmer EnVision® Multilabel reader (PerkinElmer, Woodbridge, ON, Canada).

hERG WT [4] = target: T4, hERG WT (Homo sapiens, UniProt Q12809); conditions: 1 µM
hERG Y652A [5] = target: T1, hERG Y652A; conditions: 1 µM
hERG F656A [6] = target: T2, hERG F656A; conditions: 1 µM
hERG WT [7] = target: T4, hERG WT; test: in vitro; conditions: Percent current inhibition hERG WT
hERG WT [8] = target: T4, hERG WT
hERG Y652A [9] = target: T1, hERG Y652A; test: Whole-cell patch clamp (automated), HEK cells stably expressing hERGY652A
hERG F656A [10] = target: T2, hERG F656A; test: Whole-cell patch clamp (manual, 135 mM K+), HEK cells stably expressing hERGF656A
[11] = pH 7.4, Percent current inhibition hERG F656A
[12] = pH 7.4, reduction in the inhibition of F656A mutant when compared to the WT
[13] = read-out: hERG IC50 from literature, Patch clamp HEK293 cells @ 23 ± 1 °C, ref Toga et al.
[14] = read-out: hERG IC50 from literature, Patch clamp HEK293 cells @ 34 ± 1 °C, ref Wu et al.

T2 sequence (Q12809 whole entry F656A): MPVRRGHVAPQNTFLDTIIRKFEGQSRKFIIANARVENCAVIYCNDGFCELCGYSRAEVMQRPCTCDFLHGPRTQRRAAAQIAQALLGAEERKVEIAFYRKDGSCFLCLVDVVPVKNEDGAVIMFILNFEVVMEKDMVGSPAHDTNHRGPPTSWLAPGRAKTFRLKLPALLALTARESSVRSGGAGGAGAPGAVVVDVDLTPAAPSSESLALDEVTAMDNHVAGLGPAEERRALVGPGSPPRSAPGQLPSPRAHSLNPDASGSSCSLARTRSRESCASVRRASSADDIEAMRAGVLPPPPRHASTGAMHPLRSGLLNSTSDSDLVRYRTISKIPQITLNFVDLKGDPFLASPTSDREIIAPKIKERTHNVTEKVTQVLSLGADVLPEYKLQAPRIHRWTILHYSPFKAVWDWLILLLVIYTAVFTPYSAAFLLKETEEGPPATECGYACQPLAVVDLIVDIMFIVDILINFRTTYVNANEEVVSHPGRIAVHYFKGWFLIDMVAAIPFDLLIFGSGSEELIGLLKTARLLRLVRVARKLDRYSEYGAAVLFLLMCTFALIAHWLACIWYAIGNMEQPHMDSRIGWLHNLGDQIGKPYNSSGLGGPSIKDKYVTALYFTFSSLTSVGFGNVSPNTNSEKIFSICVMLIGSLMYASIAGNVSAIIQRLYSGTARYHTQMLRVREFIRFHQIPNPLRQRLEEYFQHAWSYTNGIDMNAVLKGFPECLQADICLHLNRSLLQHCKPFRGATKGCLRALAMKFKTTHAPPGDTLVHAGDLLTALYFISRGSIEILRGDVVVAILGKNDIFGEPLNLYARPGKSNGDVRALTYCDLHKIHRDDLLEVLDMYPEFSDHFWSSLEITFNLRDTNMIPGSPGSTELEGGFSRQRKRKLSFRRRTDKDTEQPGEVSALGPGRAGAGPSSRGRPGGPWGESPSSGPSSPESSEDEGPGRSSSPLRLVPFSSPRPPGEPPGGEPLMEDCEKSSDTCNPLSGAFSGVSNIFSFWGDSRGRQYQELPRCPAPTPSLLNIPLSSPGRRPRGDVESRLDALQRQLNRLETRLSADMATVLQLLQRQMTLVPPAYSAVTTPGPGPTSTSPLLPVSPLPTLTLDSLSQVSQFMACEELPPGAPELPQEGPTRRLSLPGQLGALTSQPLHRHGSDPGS
T1 sequence (Q12809 whole entry Y652A): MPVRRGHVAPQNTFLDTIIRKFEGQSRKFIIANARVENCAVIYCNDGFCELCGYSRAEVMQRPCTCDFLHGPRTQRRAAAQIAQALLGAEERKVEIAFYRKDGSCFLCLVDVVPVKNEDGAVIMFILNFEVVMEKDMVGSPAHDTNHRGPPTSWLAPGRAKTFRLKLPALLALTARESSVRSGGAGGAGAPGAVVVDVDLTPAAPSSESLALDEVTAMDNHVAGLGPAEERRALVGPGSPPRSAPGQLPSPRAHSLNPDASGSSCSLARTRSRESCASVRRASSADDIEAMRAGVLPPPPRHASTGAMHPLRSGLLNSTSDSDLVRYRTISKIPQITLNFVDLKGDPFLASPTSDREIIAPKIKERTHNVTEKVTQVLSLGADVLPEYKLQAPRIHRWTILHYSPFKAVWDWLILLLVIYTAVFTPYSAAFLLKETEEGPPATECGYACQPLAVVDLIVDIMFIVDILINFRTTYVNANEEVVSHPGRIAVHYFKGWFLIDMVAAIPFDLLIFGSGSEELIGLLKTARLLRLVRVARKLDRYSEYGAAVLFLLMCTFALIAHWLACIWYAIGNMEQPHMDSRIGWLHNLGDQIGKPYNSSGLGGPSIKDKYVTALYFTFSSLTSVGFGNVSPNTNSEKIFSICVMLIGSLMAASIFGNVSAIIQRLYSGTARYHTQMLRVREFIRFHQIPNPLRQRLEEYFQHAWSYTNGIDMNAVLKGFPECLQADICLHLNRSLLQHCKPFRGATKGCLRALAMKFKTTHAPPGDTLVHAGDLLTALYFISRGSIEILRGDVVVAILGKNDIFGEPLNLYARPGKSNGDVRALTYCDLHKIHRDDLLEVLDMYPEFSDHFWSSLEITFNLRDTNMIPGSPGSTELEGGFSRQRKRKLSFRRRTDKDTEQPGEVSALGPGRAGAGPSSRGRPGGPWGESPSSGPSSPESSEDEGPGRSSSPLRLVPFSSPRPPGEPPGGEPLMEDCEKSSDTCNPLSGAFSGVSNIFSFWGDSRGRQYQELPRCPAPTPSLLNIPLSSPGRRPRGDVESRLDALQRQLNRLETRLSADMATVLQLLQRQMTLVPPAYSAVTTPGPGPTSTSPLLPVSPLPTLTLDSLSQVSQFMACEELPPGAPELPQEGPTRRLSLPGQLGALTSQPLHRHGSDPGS
T4 sequence (Q12809 whole entry): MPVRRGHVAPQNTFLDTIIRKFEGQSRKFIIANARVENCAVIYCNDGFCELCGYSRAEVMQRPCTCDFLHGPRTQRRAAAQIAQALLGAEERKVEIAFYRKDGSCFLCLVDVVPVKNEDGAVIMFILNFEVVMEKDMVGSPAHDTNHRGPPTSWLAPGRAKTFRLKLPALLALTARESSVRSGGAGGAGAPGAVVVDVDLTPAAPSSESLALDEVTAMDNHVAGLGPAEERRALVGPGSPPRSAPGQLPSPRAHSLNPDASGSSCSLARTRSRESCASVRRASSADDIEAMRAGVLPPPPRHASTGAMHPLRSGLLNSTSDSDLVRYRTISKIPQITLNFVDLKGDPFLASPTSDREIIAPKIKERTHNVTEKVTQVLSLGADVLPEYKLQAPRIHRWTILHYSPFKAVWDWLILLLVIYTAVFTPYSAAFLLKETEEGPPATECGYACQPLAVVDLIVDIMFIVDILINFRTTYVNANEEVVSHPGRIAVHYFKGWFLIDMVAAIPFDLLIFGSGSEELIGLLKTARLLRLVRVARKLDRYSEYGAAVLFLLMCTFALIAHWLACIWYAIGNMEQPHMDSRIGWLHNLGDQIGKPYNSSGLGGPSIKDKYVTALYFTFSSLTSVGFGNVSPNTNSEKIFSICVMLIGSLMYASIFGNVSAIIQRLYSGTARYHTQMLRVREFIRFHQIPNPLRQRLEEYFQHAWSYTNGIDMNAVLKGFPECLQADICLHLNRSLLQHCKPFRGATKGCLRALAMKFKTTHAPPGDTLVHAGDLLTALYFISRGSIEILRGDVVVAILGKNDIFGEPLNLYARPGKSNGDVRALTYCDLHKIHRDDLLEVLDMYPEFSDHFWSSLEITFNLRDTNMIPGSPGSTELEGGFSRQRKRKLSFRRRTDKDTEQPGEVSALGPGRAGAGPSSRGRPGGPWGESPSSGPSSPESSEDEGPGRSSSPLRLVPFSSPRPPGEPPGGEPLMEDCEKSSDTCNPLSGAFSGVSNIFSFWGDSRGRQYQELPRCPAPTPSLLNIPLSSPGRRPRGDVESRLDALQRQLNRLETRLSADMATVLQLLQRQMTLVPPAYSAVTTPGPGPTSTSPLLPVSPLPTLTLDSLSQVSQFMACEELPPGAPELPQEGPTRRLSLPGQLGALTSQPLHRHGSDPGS
T3 sequence (Q12809 whole entry): as above

## COc1cc(N)c(Cl)cc1C(=O)NC1CCN(CCCOc2ccc(F)cc2)CC1OC (centres unmarked) [Cisapride]
[1]
  binding affinity to 5HT-4 (agonist): ~ 14 nM
hERG Y652A [2]
  inhibition at 3 µM: 39.1%
  inhibition at 5 µM: 57.7%
  inhibition at 10 µM: 91.7%
hERG F656A [3]; [11]
  inhibition at 3 µM: 38.7%
  inhibition at 5 µM: 59.6%
  inhibition at 10 µM: 75.5%
hERG F656A [3]; [12]
  inhibition at 1 µM: ~80%
hERG; read-out: hERG1 channel inhibition affinity
  IC50: […]
hERG; [13]
  IC50: […]

## Cc1cccc(C)c1NC(=O)C1CCCCN1C (centres unmarked) [Mepivacaine]
hERG; read-out: hERG IC50
  IC50: > 100 µM and 156 µM
hERG; [14]
  IC50: 156 µM

## CCOc1cc(N)c(Cl)cc1C(=O)NCC1CN(Cc2ccc(F)cc2)CCO1 (centres unmarked) [Mosapride]
WT hERG
  affinity to WT hERG in FP assay: much weaker affinity
hERG WT [4]
  Percent current inhibition hERG WT: very small percentage
hERG Y652A [5]
  Percent current inhibition hERG Y652A: very small percentage
hERG F656A [6]
  Percent current inhibition hERG F656A: very small percentage
hERG WT [7]
  inhibition at 1 µM: 13.1%
  inhibition at 3 µM: 33.5%
  inhibition at 5 µM: 45%
  inhibition at 10 µM: 68.7%
  inhibition at 30 µM: 92.5%
hERG Y652A [2]
  inhibition at 1 µM: 7.13%
  inhibition at 3 µM: 13.6%
  inhibition at 5 µM: 20.6%
  inhibition at 10 µM: 31.3 ± 3.65%
  inhibition at 30 µM: 66.8%
hERG F656A [3]; [11]
  inhibition at 1 µM: 11%
  inhibition at 3 µM: 12.4%
  inhibition at 5 µM: 16%
  inhibition at 10 µM: 25.7%
  inhibition at 30 µM: 34.4%
  inhibition at 100 µM: 40.2%
hERG F656A [3]; [12]
  inhibition at 1 µM: 2%
hERG; [13]
  IC50: 4.8 µM
hERG WT [8]
  IC50: 5.36 µM
hERG Y652A [9]
  IC50: 17.4 µM

## Cc1cccc(C)c1NC(=O)CC12CCCN1CCC2 [Pilsicainide]
hERG; read-out: hERG IC50
  IC50: < 30 µM and ~20 µM
hERG; [14]
  IC50: 20.4 µM

## COc1ccccc1OCC(O)CN1CCN(CC(=O)Nc2c(C)cccc2C)CC1 (centres unmarked) [Ranolazine]
hERG; read-out: hERG IC50 from literature, Patch clamp HEK293 cells @ 37 ± 1 °C, ref Du et al.
  IC50: […]
hERG WT [8]; 100 µM
  Percent current inhibition hERG WT: 97.36% ± 0.89
hERG WT [8]; human, HEK cells stably expressing hERG WT, Percent current inhibition hERG WT, 10 µM
  inhibition at 10 µM: 42.3%
hERG WT [8]; human, HEK cells stably expressing hERG WT, Percent current inhibition hERG WT, 30 µM
  inhibition at 30 µM: 77%
hERG WT [8]; human, HEK cells stably expressing hERG WT, Percent current inhibition hERG WT, 100 µM
  inhibition at 100 µM: ~90%
hERG WT [8]; human, HEK cells stably expressing hERG WT, Percent current inhibition hERG WT, 300 µM
  inhibition at 300 µM: 100%
hERG WT [8]; human, HEK cells stably expressing hERG WT, Percent current inhibition hERG WT, 500 µM
  inhibition at 500 µM: 100%
hERG Y652A [9]; 100 µM
  Percent current inhibition hERG Y652A: 24.62% ± 2.64
hERG Y652A [9]; human, HEK cells stably expressing hERG Y652A, pH 7.4, Percent current inhibition hERG Y652A, 10 µM
  inhibition at 10 µM: 2.4%
hERG Y652A [9]; human, HEK cells stably expressing hERG Y652A, pH 7.4, Percent current inhibition hERG Y652A, 30 µM
  inhibition at 30 µM: 10.1%
hERG Y652A [9]; human, HEK cells stably expressing hERG Y652A, pH 7.4, Percent current inhibition hERG Y652A, 100 µM
  inhibition at 100 µM: 25%
hERG Y652A [9]; human, HEK cells stably expressing hERG Y652A, pH 7.4, Percent current inhibition hERG Y652A, 300 µM
  inhibition at 300 µM: 64%
hERG Y652A [9]; human, HEK cells stably expressing hERG Y652A, pH 7.4, Percent current inhibition hERG Y652A, 500 µM
  inhibition at 500 µM: 84.6%
hERG F656A [10]; 100 µM
  Percent current inhibition hERG F656A: 21.37% ± 7.80
hERG F656A [10]; human, HEK cells stably expressing hERG F656A, pH 7.4, Percent current inhibition hERG F656A, 10 µM
  inhibition at 10 µM: 4.39%
hERG F656A [10]; human, HEK cells stably expressing hERG F656A, pH 7.4, Percent current inhibition hERG F656A, 30 µM
  inhibition at 30 µM: 10.9%
hERG F656A [10]; human, HEK cells stably expressing hERG F656A, pH 7.4, Percent current inhibition hERG F656A, 300 µM
  inhibition at 300 µM: 37.7%
hERG F656A [10]; human, HEK cells stably expressing hERG F656A, pH 7.4, Percent current inhibition hERG F656A, 500 µM
  inhibition at 500 µM: 49.6%
